Laboratory results as given in patent publication US6432688B1, “Amino alcohol dehydrogenase converts keto alcohol to amino alcohol and amino alcohol to keto alcohol” (Daicel Chemical Industries, Ltd., priority 1999, dated 2002).

Columns and labels:
[1] = system: amino alcohol dehydrogenase derived from Streptomyces virginiae IFO 12827; assay: Substrate specificity, relative activity to various substrates
Description: Based on this reaction, the amino alcohol dehydrogenase activity i n the crude enzyme solution was spectroscopically determined by measuring the change of absorbance at 490 nm. One unit of enzymewas defined as the amount of the enzyme producing 1 μmol formazan in 1 min under the above condition.

[2] = system: amino alcohol dehydrogenase derived from Streptomyces virginiae IFO 12827; assay: Km values in reductive amination and oxidative deamination; type: biochemical
[3] = system: amino alcohol dehydrogenase obtained in Example 7; assay: Enzyme reaction: conversion of substrates, product analysed by GC, HPLC or GC-MS; type: biochemical, Streptomyces virginiae IFO 12827; conditions: 0.5 unit enzyme, 25° C., 48 hours; reductive: 10 mM NADH, 0.2M NH4Cl, pH 8.0; oxidative: 10 mM NAD+, pH 9.0
Description: The amino alcohol dehydrogenase (0.5 unit) obtained in Example 7 was added to 2 ml of a mixture containing 5 mM hydroxyacetone, 10 mM NADH, 0.2M NH4Cl, 0.1 M Tris-HCl buffer (pH 8.0), and the resulting reaction mixture was incubated at 25° C. for 48 hours. The product was analyzed by gas chromatography with a FID detector (column, TENAX TA (3.2 mm×1 m); injection and detection temperature, […]; N2 flow rate, 50 ml/min; column temperature, gradient from 150 to 180° C. (5° C./min); retained at 180° C. for 10 min). […] The retention time of 2-amino-1-propanol was completely the same as that of the standard compound.
The same reaction system as used in 1) except for using oxalacetic acid as a substrate in place of hydroxyacetone was incubated at 25° C. for 48 hours. The produced amino acid was converted into an o-phthalaldehyde (OPA) derivative by OPA-derivatization method. The derivative was analyzed by high-performance liquid chromatography (column, CAPCELL PAC C18 AG120 (4.6 mm×25 cm, Shiseido); detection, 340 nm; column temperature, 45° C.; mobile phase flow rate, 1 ml/ min; concentration gradient elution, a) 10 mM sodium phosphate buffer (pH 6.8) to b) acetonitrile:10 mM sodium phosphate buffer (pH 6.8) =2:1).
The amino alcohol dehydrogenase (0.5 unit) was added to a mixture of 2 mM 1-phenethylamine, 10 mM NAD^+ and 0.1, M Tris-HCl buffer (pH 9.0), and the resulting reaction solution was incubated at 25° C. for 48 hours. The reaction solution was adjusted to pH 10.0 with NaOH and extracted with an equivalent volume of ethyl acetate.

[4] = system: amino alcohol dehydrogenase derived from Streptomyces virginiae IFO 12827; assay: Coenzyme dependence; type: biochemical
[5] = system: L-glutamate dehydrogenase derived from microorganism (Toyobo); assay: Reactivity of L-glutamate dehydrogenase derived from microorganism; type: biochemical; conditions: same experiment as Comparison Example 1
Description: (§1) Known NAD(H)-dependent amino acid dehydrogenases reportedly act on only keto acids and amino acids as substrates (Experiments of Biochemistry, Vol. 11, ed. by Japan Society of Biochemistry, Amino acid metabolism and biological amine (I) 193-218, J. Org. Chem. 55, 5567, 1990; Fermentation and Industry 40, 301-311, 1982). […] Reactivity of a commercially available alanine dehydrogenase to amino alcohols was examined. Reaction was performed at 25° C. for several min in a reaction solution containing 1 mM NAD^+, 10 mM of each substrate, 0.1 M Tris-HCl buffer (pH 8.0), and 0.02 unit of alanine dehydrogenase (derived from Bacillus stearothermophilius, Seikagaku Corporation). NADH produced was spectroscopically measured at 340 nm.
The same experiment as Comparison Example 1 was conducted using L-glutamate dehydrogenase derived from microorganism (Toyobo), and that derived from bovine liver (Lifetech Oriental).

[6] = molecular target: T1, alanine dehydrogenase (derived from Bacillus stearothermophilius, Seikagaku Corporation) (Geobacillus stearothermophilus, UniProt P17557); assay: Reactivity of commercially available alanine dehydrogenase (NADH at 340 nm); type: biochemical; conditions: 1 mM NAD+, 10 mM substrate, 0.1 M Tris-HCl pH 8.0, 0.02 unit enzyme, 25° C.
T1 construct: purchased Seikagaku Corporation
Description: as §1

[7] = Substrate (Amines), TABLE 5 printed a fourth time
[8] = Substrate (Amines), TABLE 5 printed a second time
[9] = Substrate (Amines), TABLE 5 printed a third time
[10] = Substrate (Amino alcohols), activity to serinol as 100%, TABLE 3
[11] = Substrate (Amino alcohols), activity to serinol as 100%, TABLE 3 printed a second time
[12] = oxidative deamination reaction (pH 9.0, Tris-HCl buffer)
[13] = reductive amination reaction (pH 7.0, phosphate buffer)

T1 sequence (P17557 whole entry): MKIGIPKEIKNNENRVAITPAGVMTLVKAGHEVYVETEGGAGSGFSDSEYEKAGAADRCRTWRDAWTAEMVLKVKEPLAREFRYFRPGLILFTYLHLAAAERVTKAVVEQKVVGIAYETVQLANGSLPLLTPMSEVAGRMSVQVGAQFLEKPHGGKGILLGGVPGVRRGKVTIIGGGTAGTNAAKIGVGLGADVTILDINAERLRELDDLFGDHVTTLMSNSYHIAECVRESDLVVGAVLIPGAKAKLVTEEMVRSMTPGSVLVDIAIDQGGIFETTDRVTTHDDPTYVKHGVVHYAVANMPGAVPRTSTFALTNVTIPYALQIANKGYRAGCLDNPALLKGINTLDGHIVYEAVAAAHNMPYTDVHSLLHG

Row | Molecule | Relative activity (%) ([1]; Substrate (Amines), TABLE 5) | Relative activity (%) [1, 7] [%] | Relative activity (%) [1, 8] [%] | Relative activity (%) [1, 9] [%] | Relative activity (%) [1, 10] [%] | Relative activity (%) [1, 11] [%] | also measured
1 | CCCC(C)N (centres unmarked) [2-aminopentane] | 252 | 252 | 252 | 252 | – | – | –
2 | NCc1ccccc1 [benzylamine] | 134 | 134 | 134 | 134 | – | – | –
3 | N[C@H](CO)Cc1ccccc1 [(S)-(−)-2-amino-3-phenyl-1-propanol] | – | – | – | – | 120 | 120 | –
4 | NC(=O)c1ccc[n+]([C@@H]2O[C@H](COP(=O)([O-])OP(=O)(O)OC[C@H]3O[C@@H](n4cnc5c(N)ncnc54)[C@H](O)[C@@H]3O)[C@@H](O)[C@H]2O)c1 [NAD^+] | – | – | – | – | – | – | Km [2, 12]: 0.84 mM
5 | CC(C)C[C@H](N)CO [(S)-(+)-leucinol] | – | – | – | – | 105 | 105 | –
6 | CC(N)c1ccccc1 (centres unmarked) [1-phenethylamine] | – | – | – | – | – | – | conversion by the enzyme [3]: the enzyme converts amine into ketone
7 | CC(C)(N)CO [2-amino-2-methyl-1-propanol] | – | – | – | – | 115 | 115 | –
8 | Nc1ncccc1O [2-amino-3-hydroxypyridine] | – | – | – | – | 136 | 136 | –
9 | NC(CO)CO [serinol] | – | – | – | – | 100 | 100 | Km [2, 12]: 4 mM
10 | CC[C@@H](C)N [(R)-2-aminobutane] | 127 | 127 | 127 | 127 | – | – | –
11 | CCCCN [n-butylamine] | 170 | 170 | 170 | 170 | – | – | –
12 | NAD(H) | – | – | – | – | – | – | use as coenzyme / electron acceptor [4]: dependent
13 | CC(=O)CO [hydroxyacetone] | – | – | – | – | – | – | conversion by the enzyme [3]: production of 2-amino-1-propanol was detected
14 | O=C(O)CC(=O)C(=O)O [oxalacetic acid] | – | – | – | – | – | – | conversion by the enzyme [3]: peak of the product, aspartic acid was observed
15 | CC[C@H](C)[C@H](N)CO [isoleucinol] | – | – | – | – | 113 | 113 | –
16 | CC(C)[C@H](N)CO [(S)-(+)-2-amino-3-methyl-1-butanol] | – | – | – | – | 43 | 43 | –

Row | Molecule | Relative activity (%) ([1]; Substrate (Amines), TABLE 5) | Relative activity (%) [1, 7] [%] | Relative activity (%) [1, 8] [%] | Relative activity (%) [1, 9] [%] | Relative activity (%) [1, 10] [%] | Relative activity (%) [1, 11] [%] | also measured
17 | CCCC(N)CO (racemic) [DL-2-amino-1-pentanol] | – | – | – | – | 103 | 103 | –
18 | CCCCCCCCN [n-octylamine] | 114 | 114 | 114 | 114 | – | – | –
19 | CCCCC[C@@H](C)N [(R)-2-aminoheptane] | 91 | 91 | 91 | 91 | – | – | –
20 | C[C@@H](N)c1ccccc1 [(R)-1-phenethylamine] | 127 | 127 | 127 | 127 | – | – | –
21 | CSCC[C@H](N)CO [L-(−)-methioninol] | – | – | – | – | 85 | 85 | –
22 | NADP(H) | – | – | – | – | – | – | use as coenzyme / electron acceptor [4]: does not use
23 | CCC(N)CO (single isomer, unassigned; (+)) [(+)-2-amino-1-butanol] | – | – | – | – | 109 | 109 | –
24 | COS(=O)(=O)[O-].C[n+]1c2ccccc2nc2ccccc21 [PMS, phenazinementasulfate, reference compound] | – | – | – | – | – | – | use as coenzyme / electron acceptor [4]: does not use
25 | NC1CCCCC1O (centres unmarked) [2-aminocyclohexanol] | – | – | – | – | 113 | 113 | –
26 | CCCCCCN [n-hexylamine] | 173 | 173 | 173 | 173 | – | – | –
27 | CC(N)CCc1ccccc1 (centres unmarked) [1-methyl-3-phenylpropylamine] | 152 | 152 | 152 | 152 | – | – | –
28 | N[C@@H](CCC(=O)O)C(=O)O [L-glutamic acid] | – | – | – | – | – | – | enzyme acts on substrate [5]: acted on
29 | C[C@H](N)C(=O)O [L-alanine] | – | – | – | – | – | – | enzyme acts on substrate [6]: acted on
30 | Cl.N [NH4Cl] | – | – | – | – | – | – | Km [2, 13]: 25 mM
31 | NADH | – | – | – | – | – | – | Km [2, 13]: 0.022 mM
32 | CCC(N)CC [3-aminopentane] | 270 | 270 | 270 | 270 | – | – | –
